According to US10344019B2 (priority 2010, dated 2019):
Where two headings read alike, the source gives them in different places.

How the values were obtained:
Assay in all cases: microbe, parasite or virus in culture
Format in all cases: cell-based
[1] = test system: HCV 3a RLuc cells (NS5A chimeric genotype 1b Con1 replicon with consensus genotype 3a NS5A gene); details: Hepatitis C virus
Procedure, shortened: (§1)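 Replicon cells stably carrying the listed RLuc-encoding dicistronic replicons were seeded and treated with DMSO serial dilutions of compound (10 mM stocks) diluted into culture medium. After 72 h, cells were lysed and Renilla luciferase activity measured. EC50 was derived by non-linear regression.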

[2] = test system: HCV 2a JFH-1 Rluc cells (dicistronic genotype 2a JFH-1 replicon, RLuc reporter); details: Hepatitis C virus, genotype 2a JFH-1 replicon, read-out: 2a JFH
Procedure, shortened: (§2)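 Renilla luciferase HCV replicon cells: dicistronic 1b Con1, 1a H77 or 2a JFH-1 replicons, or a JFH-1 chimera carrying J6 NS5A (M31 present). Compound in DMSO serial dilutions, 72 h incubation, then lysis and luciferase read. EC50 by non-linear regression.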

[3] = test system: HCV 4a Rluc cells (NS5A chimeric genotype 1b Con1 replicon with genotype 4a NS5A gene); details: Hepatitis C virus, read-out: 4a
Procedure, shortened: as §1

[4] = test system: HCV 1b RLuc cells (dicistronic genotype 1b Con1 replicon, RLuc reporter); details: Hepatitis C virus, read-out: 1b (nM)
Procedure, shortened: as §2

[5] = test system: HCV 1a RLuc cells (dicistronic genotype 1a H77 replicon, RLuc reporter); details: Hepatitis C virus, read-out: 1a
Procedure, shortened: as §2

[6] = read-out: 3a, Table 2, genotype 3a NS5A chimeric replicon
[7] = 72 h, Table 2, genotype 1a H77 replicon, 72 hours
[8] = read-out: 3a, Table 1, genotype 3a NS5A chimeric replicon
[9] = 72 h, Table 1, genotype 1a H77 replicon, 72 hours
[10] = read-out: 3a, genotype 3a replicon
[11] = read-out: 3a, genotype 3a NS5A chimeric 1b Con1 replicon
[12] = genotype 1a H77 replicon, RLuc reporter

Compound	EC50 [1, 6] [nM]	EC50 ([2]; 72 h, Table 2, 72 hours) [nM]	EC50 [3] [nM]	EC50 ([4]; 72 h) [nM]	EC50 [5, 7] [nM]	EC50 [1, 10] [nM]	EC50 [2] [nM]	EC50 [4] [nM]	EC50 ([5]; genotype 1a replicon) [nM]	EC50 [1, 11] [nM]	EC50 ([2]; RLuc reporter) [nM]	EC50 [5, 12] [nM]	further results
COC(=O)N[C@H](C(=O)N1CCC[C@H]1c1nc2ccc3cc(-c4ccc5c(c4)CCc4nc([C@@H]6[C@H]7CC[C@H](C7)N6C(=O)[C@@H](NC(=O)OC)C6CCOCC6)[nH]c4-5)ccc3c2[nH]1)C(C)C [Example 89]	0.001 to 0.99	0.001 to 0.999	0.001 to 0.99	0.064	0.001 to 0.999								
COC(=O)N[C@H](C(=O)N1CCC[C@H]1c1ncc(-c2cc3c4c(c2)CCc2cc(-c5cnc([C@@H]6CCCN6C(=O)[C@@H](NC(=O)OC)C(C)C)[nH]5)cc(c2-4)CC3)[nH]1)C(C)C [Example 20]			0.001 to 0.99	0.021									EC50 [1, 8]: 0.001 to 0.99 nM; EC50 ([2]; 72 h, Table 1, 72 hours): 0.001 to 0.999 nM; EC50 [5, 9]: 0.001 to 0.999 nM
COC(=O)N[C@H](C(=O)N1CCC[C@H]1c1nc2ccc3cc(-c4ccc(-c5cnc([C@@H]6CC7(CN6C(=O)[C@H](NC(=O)OC)c6ccccc6)OCCO7)[nH]5)cc4)ccc3c2[nH]1)C(C)C [Example 296]			0.001 to 0.99			0.001 to 0.99	0.001 to 0.999	0.063	0.001 to 0.999				
COC(=O)N[C@H](C(=O)N1CCC[C@H]1c1ncc(-c2ccc3cc(-c4ccc(-c5cnc([C@@H]6CC7(CC7)CN6C(=O)[C@H](NC(=O)OC)c6ccccc6)[nH]5)cc4)ccc3c2)[nH]1)C1CCOCC1 [Example 236]			0.001 to 0.99					0.011		0.001 to 0.99	0.001 to 0.999	0.001 to 0.999	
COC(=O)N[C@H](C(=O)N1CCC[C@H]1c1nc2ccc(-c3ccc4c(c3)CCc3cc(-c5cnc([C@@H]6CCCN6C(=O)C(c6ccccc6)N(C)C)[nH]5)ccc3-4)cc2[nH]1)C(C)C (stereo partly shown) [Example 181]			0.001 to 0.99					0.01		0.001 to 0.99	0.001 to 0.999	0.001 to 0.999	
COC(=O)N[C@H](C(=O)N1CCC[C@H]1c1nc2c([nH]1)-c1ccc(-c3ccc4cc(-c5cnc([C@@H]6CCCN6C(=O)[C@H](NC(=O)OC)c6ccccc6)[nH]5)ccc4c3)cc1CC2)C1CCNCC1 [Example 284]			0.001 to 0.99					4.62		> 5	1 to 44	1 to 44	
COC(=O)N[C@H](C(=O)N1[C@@H]2CC[C@@H](C2)[C@H]1c1ncc(-c2ccc3cc(-c4ccc5c(ccc6nc([C@@H]7CCCN7C(=O)[C@H](NC(=O)OC)c7ccccc7)[nH]c65)c4)ccc3c2)[nH]1)C1CCOCC1 [Example 101]	0.001 to 0.99	0.001 to 0.999	0.001 to 0.99	0.011	0.001 to 0.999								
COC(=O)N[C@H](C(=O)N1CCC[C@H]1c1nc2c([nH]1)-c1ccc(-c3ccc4c(ccc5nc([C@@H]6CC7(CN6C(=O)[C@H](NC(=O)OC)c6ccccc6)OCCO7)[nH]c54)c3)cc1CC2)C(C)C [Example 366]			0.001 to 0.99			0.001 to 0.99	0.001 to 0.999	0.075	0.001 to 0.999				
COC(=O)N[C@H](C(=O)N1CCC[C@H]1c1ncc(-c2ccc3cc(-c4ccc(-c5cnc([C@@H]6CC(O)CN6C(=O)[C@H](NC(=O)OC)c6ccccc6)[nH]5)cc4)ccc3c2)[nH]1)C(C)C (stereo partly shown) [Example 256]			0.001 to 0.99					0.015		0.001 to 0.99	0.001 to 0.999	0.001 to 0.999	
COC(=O)N[C@H](C(=O)N1CCC[C@H]1c1nc2ccc3cc(-c4ccc(-c5cnc([C@@H]6[C@H]7CC[C@H](C7)N6C(=O)[C@@H](NC(=O)OC)[C@@H](C)OC)[nH]5)c(F)c4)ccc3c2[nH]1)C(C)C [Example 100]	0.001 to 0.99	0.001 to 0.999	0.001 to 0.99	0.004	0.001 to 0.999								
COC(=O)N[C@H](C(=O)N1CCC[C@H]1c1ncc(-c2ccc3c(c2)CCc2cc(-c4cnc([C@@H]5[C@H]6CC[C@H](C6)N5C(=O)[C@@H](NC(=O)OC)C5CCOCC5)[nH]4)ccc2-3)[nH]1)C(C)C [Example 92]	0.001 to 0.99	0.001 to 0.999	0.001 to 0.99	0.047	0.001 to 0.999								
COC(=O)N[C@H](C(=O)N1CCC[C@H]1c1nc2ccc3cc(-c4ccc5c(c4)CCc4nc([C@@H]6[C@H]7CC[C@H](C7)N6C(=O)[C@@H](NC(=O)OC)C(C)C)[nH]c4-5)ccc3c2[nH]1)C(C)C [Example 290]			0.001 to 0.99			0.001 to 0.99	0.001 to 0.999	0.017	0.001 to 0.999				
COC(=O)N[C@H](C(=O)N1CCC[C@H]1c1ncc(-c2ccc3c(c2)COc2c-3ccc3cc(-c4cnc([C@@H]5CCCN5C(=O)[C@@H](NC(=O)OC)[C@@H](C)OC)[nH]4)ccc23)[nH]1)[C@@H](C)OC [Example 17]			0.001 to 0.99	0.014									EC50 [1, 8]: > 5 nM; EC50 ([2]; 72 h, Table 1, 72 hours): 0.001 to 0.999 nM; EC50 [5, 9]: 0.001 to 0.999 nM
COC(=O)N[C@H](C(=O)N1CCC[C@H]1c1ncc(-c2ccc3cc(-c4ccc(-c5cnc([C@@H]6CC7(CN6C(=O)[C@H](NC(=O)OC)c6ccccc6)OCCO7)[nH]5)cc4)ccc3c2)[nH]1)C(C)C [Example 45]	1 to 4.99	0.001 to 0.999	0.001 to 0.99	0.014	0.001 to 0.999								
COC(=O)N[C@H](C(=O)N1CCCC1c1ncc(-c2cc3c4c(c2)OCc2cc(-c5cnc([C@@H]6CCCN6C(=O)[C@@H](NC(=O)OC)C6CCC6)[nH]5)cc(c2-4)OC3)[nH]1)C1CCC1 (stereo in doubt) [Example 376]			0.001 to 0.99			0.001 to 0.99	0.001 to 0.999	0.02	0.001 to 0.999				
COC(=O)N[C@H](C(=O)N1CCC[C@H]1c1ncc(-c2ccc3cc(-c4ccc(-c5cnc([C@@H]6CCCN6C(=O)[C@@H](NC(=O)OC)[C@@H](C)OC)[nH]5)cc4)ccc3c2)[nH]1)C(C)C [Example 240]			0.001 to 0.99					0.01		1 to 4.99	0.001 to 0.999	0.001 to 0.999	
CC#Cc1cc(-c2cnc([C@@H]3CCCN3C(=O)[C@@H](NC(=O)OC)C(C)C)[nH]2)ccc1-c1ccc(-c2cnc([C@@H]3CCCN3C(=O)[C@@H](NC(=O)OC)C3CCOCC3)[nH]2)cc1 [Example 347]			0.001 to 0.99			0.001 to 0.99	0.001 to 0.999	0.055	0.001 to 0.999				
COC(=O)N[C@H](C(=O)N1CCC[C@H]1c1nc2ccc3cc(-c4ccc(-c5cnc([C@@H]6CC7(CN6C(=O)[C@H](NC(=O)OC)c6ccccc6)OCCO7)[nH]5)cc4)ccc3c2[nH]1)C1CCOCC1 [Example 297]			0.001 to 0.99			0.001 to 0.99	0.001 to 0.999	0.357	0.001 to 0.999				
COC(=O)NC(C(=O)N1CCC[C@H]1c1ncc(-c2ccc3cc(-c4ccc5c(c4)CCc4nc([C@@H]6CCCN6C(=O)[C@@H](NC(=O)OC)C(C)C)[nH]c4-5)ccc3c2)[nH]1)c1cnccn1 (stereo partly shown) [Example 231]			0.001 to 0.99					0.019		1 to 4.99	1 to 44	0.001 to 0.999	
COC(=O)N[C@H](C(=O)N1CC2(C[C@H]1c1ncc(-c3ccc4cc(-c5ccc(-c6cnc([C@@H]7CCCN7C(=O)[C@H](NC(=O)OC)c7ccccc7)[nH]6)cc5)ccc4c3)[nH]1)OCCO2)C1CCOCC1 [Example 44]	1 to 4.99	0.001 to 0.999	0.001 to 0.99	0.032	0.001 to 0.999								
